Converted amounts (≈) assume the structure as drawn. Values belong to the molecule of their own block, whether it stands above or below them. The source made the active and inactive calls. No cut-off for these calls is given here.
What was measured:
CWR22R [1] = assay: Antiproliferative activity against human 22Rv1 cells assessed as reduction in cell viability incubated for 72 hrs by SRB assay; assay type: functional, cell-based; details: 22Rv1, 72 h
[2] = target: T1, Cyclin-dependent kinase 9 (Homo sapiens, UniProt P50750); assay: Inhibition of CDK9 (unknown origin) at 20 nM in presence of ATP by ADP-Glo kinase assay relative to control
T1 sequence (P50750 whole entry): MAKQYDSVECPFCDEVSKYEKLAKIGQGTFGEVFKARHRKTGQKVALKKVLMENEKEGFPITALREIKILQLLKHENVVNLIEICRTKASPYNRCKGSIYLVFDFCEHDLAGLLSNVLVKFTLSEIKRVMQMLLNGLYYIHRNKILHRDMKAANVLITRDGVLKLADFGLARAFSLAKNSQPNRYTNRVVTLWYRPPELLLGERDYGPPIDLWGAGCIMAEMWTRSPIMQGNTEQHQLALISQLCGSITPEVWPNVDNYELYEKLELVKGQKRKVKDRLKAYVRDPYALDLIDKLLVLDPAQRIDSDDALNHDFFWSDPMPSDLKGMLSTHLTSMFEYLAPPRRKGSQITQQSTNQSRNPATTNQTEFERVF

[3] = target: T1, Cyclin-dependent kinase 9; assay: Inhibition of CDK9 (unknown origin) in presence of ATP by ADP-Glo kinase assay
[4] = target: T2, Protein cereblon/Cyclin-dependent kinase 9 (Homo sapiens, UniProt P50750+Q96SW2); assay: PROTAC activity at CRBN/CDK9 in human 22Rv1 cells assessed as degradation of CDK9 protein at 100 nM incubated for 12 hrs by Western blotting analysis relative to control; assay type: cell-based
Target sequence in this assay (P50750 whole entry, looked up): as the sequence (P50750 whole entry) above
Target sequence in this assay (Q96SW2 whole entry, looked up): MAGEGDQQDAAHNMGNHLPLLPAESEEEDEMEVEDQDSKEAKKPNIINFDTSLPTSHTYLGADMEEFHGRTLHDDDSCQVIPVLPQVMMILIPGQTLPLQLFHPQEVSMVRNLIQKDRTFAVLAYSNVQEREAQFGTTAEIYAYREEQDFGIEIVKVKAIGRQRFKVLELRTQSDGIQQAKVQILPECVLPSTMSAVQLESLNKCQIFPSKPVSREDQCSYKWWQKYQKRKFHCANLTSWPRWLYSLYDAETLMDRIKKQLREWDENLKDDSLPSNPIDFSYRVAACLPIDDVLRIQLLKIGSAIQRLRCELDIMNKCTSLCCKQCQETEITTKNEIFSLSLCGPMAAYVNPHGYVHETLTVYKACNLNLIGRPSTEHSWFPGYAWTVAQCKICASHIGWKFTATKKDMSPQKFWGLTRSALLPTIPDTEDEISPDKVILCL

[5] = Solubility of the compound in water at pH 7.4 by shake flask method; assay type: physicochemical
[6] = Solubility of the compound in water at pH 6.0 by shake flask method; assay type: physicochemical
[7] = target: T2, Protein cereblon/Cyclin-dependent kinase 9; assay: PROTAC activity at CRBN/CDK9 in human 22Rv1 cells assessed as degradation of CDK9 protein incubated for 12 hrs by Western blotting analysis; assay type: cell-based
[8] = target: T2, Protein cereblon/Cyclin-dependent kinase 9; assay: PROTAC activity at CRBN/CDK9 in human 22Rv1 cells assessed as degradation of CDK9 protein at 100 nM by Western blotting analysis; assay type: cell-based; details: time 2-24 hrs, TDE = time-dependent effect
Target sequence in this assay (P50750 whole entry, looked up): as the sequence (P50750 whole entry) above
Target sequence in this assay (Q96SW2 whole entry, looked up): as the sequence (Q96SW2 whole entry, looked up) above

[9] = target: T2, Protein cereblon/Cyclin-dependent kinase 9; assay: PROTAC activity at CRBN/CDK9 in human 22Rv1 cells assessed as degradation of CDK9 protein at 500 nM incubated for 12 hrs by Western blotting analysis; assay type: cell-based
Target sequence in this assay (P50750 whole entry, looked up): as the sequence (P50750 whole entry) above
Target sequence in this assay (Q96SW2 whole entry, looked up): as the sequence (Q96SW2 whole entry, looked up) above

[10] = target: Cyclin-dependent kinase 2 (Homo sapiens) (UniProt P24941); assay: Induction of CDK2 protein degradation in human 22Rv1 cells at 500 nM incubated for 12 hrs by Western blotting analysis; assay type: cell-based
[11] = target: Cyclin-dependent kinase 4 (Homo sapiens) (UniProt P11802); assay: Induction of CDK4 protein degradation in human 22Rv1 cells at 500 nM incubated for 12 hrs by Western blotting analysis; assay type: cell-based
Cyclin-dependent kinase 4 (Homo sapiens), sequence (P11802 whole entry): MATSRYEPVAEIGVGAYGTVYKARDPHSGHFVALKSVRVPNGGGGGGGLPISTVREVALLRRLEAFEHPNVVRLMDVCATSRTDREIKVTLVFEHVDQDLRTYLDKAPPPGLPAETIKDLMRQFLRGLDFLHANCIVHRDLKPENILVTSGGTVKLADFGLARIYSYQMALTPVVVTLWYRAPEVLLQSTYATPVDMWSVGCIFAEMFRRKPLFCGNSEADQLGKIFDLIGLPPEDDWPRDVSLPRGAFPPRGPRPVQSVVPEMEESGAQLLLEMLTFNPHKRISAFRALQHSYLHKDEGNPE

[12] = target: Cyclin-dependent kinase 5 (Homo sapiens) (UniProt Q00535); assay: Induction of CDK5 protein degradation in human 22Rv1 cells at 500 nM incubated for 12 hrs by Western blotting analysis; assay type: cell-based
Cyclin-dependent kinase 5 (Homo sapiens), sequence (Q00535 whole entry, looked up): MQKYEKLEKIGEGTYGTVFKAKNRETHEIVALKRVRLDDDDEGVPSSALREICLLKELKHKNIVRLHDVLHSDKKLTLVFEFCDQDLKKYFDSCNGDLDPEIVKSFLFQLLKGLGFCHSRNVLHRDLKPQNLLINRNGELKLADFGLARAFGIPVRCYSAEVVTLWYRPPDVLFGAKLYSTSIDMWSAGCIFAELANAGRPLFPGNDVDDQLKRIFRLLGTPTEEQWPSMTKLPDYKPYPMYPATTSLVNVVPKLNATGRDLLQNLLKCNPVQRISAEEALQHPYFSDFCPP

[13] = target: Cyclin-dependent kinase 6 (Homo sapiens) (UniProt Q00534); assay: Induction of CDK6 protein degradation in human 22Rv1 cells at 500 nM incubated for 12 hrs by Western blotting analysis; assay type: cell-based
Cyclin-dependent kinase 6 (Homo sapiens), sequence (Q00534 whole entry): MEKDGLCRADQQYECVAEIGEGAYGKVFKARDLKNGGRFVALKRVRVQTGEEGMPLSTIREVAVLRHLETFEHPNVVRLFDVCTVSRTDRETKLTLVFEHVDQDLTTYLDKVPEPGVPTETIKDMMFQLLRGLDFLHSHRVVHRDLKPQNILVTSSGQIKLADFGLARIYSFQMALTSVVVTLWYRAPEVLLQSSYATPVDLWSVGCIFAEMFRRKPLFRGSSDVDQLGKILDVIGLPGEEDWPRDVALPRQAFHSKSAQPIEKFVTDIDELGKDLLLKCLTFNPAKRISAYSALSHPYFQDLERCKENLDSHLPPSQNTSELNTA

[14] = target: Cyclin-dependent kinase 7 (Homo sapiens) (UniProt P50613); assay: Induction of CDK7 protein degradation in human 22Rv1 cells at 500 nM incubated for 12 hrs by Western blotting analysis; assay type: cell-based
Cyclin-dependent kinase 7 (Homo sapiens), sequence (P50613 whole entry): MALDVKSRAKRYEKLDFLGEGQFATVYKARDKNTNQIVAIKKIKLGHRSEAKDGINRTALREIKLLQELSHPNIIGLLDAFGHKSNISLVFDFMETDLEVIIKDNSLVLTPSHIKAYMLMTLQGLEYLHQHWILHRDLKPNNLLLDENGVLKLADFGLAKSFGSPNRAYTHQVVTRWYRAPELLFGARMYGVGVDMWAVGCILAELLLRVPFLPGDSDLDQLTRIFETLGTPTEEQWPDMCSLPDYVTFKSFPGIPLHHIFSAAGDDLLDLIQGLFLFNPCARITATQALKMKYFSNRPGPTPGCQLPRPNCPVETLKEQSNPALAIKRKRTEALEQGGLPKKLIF

[15] = target: T2, Protein cereblon/Cyclin-dependent kinase 9; assay: PROTAC activity at CRBN/CDK9 in human 22Rv1 cells assessed as degradation of CDK9 protein at 0.1 uM incubated for 12 hrs in presence of LWT-111 by Western blotting analysis; assay type: cell-based
Target sequence in this assay (P50750 whole entry, looked up): as the sequence (P50750 whole entry) above
Target sequence in this assay (Q96SW2 whole entry, looked up): as the sequence (Q96SW2 whole entry, looked up) above

[16] = target: T2, Protein cereblon/Cyclin-dependent kinase 9; assay: PROTAC activity at CRBN/CDK9 in human 22Rv1 cells assessed as degradation of CDK9 protein at 0.1 uM incubated for 12 hrs in presence of thalidomide by Western blotting analysis; assay type: cell-based
Target sequence in this assay (P50750 whole entry, looked up): as the sequence (P50750 whole entry) above
Target sequence in this assay (Q96SW2 whole entry, looked up): as the sequence (Q96SW2 whole entry, looked up) above

[17] = target: T2, Protein cereblon/Cyclin-dependent kinase 9; assay: PROTAC activity at CRBN/CDK9 in human 22Rv1 cells assessed as degradation of CDK9 protein at 0.1 uM incubated for 12 hrs in presence of MG132 by Western blotting analysis; assay type: cell-based
Target sequence in this assay (P50750 whole entry, looked up): as the sequence (P50750 whole entry) above
Target sequence in this assay (Q96SW2 whole entry, looked up): as the sequence (Q96SW2 whole entry, looked up) above

CWR22R [18] = assay: Antiproliferative activity against human 22Rv1 cells assessed as reduction in colony formation incubated for 2 weeks by crystal violet staining based assay; assay type: functional, cell-based; details: dose 7.8-62.5 nM
CWR22R [19] = assay: Antitumor activity against human 22Rv1 cells assessed as complete reduction in colony formation at 60 nM incubated for 2 weeks by crystal violet staining based assay; assay type: functional; parameters: scale not given: the % may be the effect or the level left
[20] = target: T2, Protein cereblon/Cyclin-dependent kinase 9; assay: PROTAC activity at CRBN/CDK9 in human 22Rv1 cells assessed as reduction in RNAPII-ser 2 phosphorylation incubated for 24 hrs by Western blotting analysis; assay type: cell-based; details: dose 0.1-1.5 µM
[21] = target: T2, Protein cereblon/Cyclin-dependent kinase 9; assay: PROTAC activity at CRBN/CDK9 in human 22Rv1 cells assessed as reduction in Mcl-1 expression incubated for 24 hrs by Western blotting analysis; assay type: cell-based; details: dose 0.1-1.5 µM
[22] = target: T2, Protein cereblon/Cyclin-dependent kinase 9; assay: PROTAC activity at CRBN/CDK9 in human 22Rv1 cells assessed as reduction in c-Myc expression incubated for 24 hrs by Western blotting analysis; assay type: cell-based; details: dose 0.1-1.5 µM
[23] = target: T2, Protein cereblon/Cyclin-dependent kinase 9; assay: PROTAC activity at CRBN/CDK9 in human 22Rv1 cells assessed as reduction in cyclin T1 expression at 0.1 to 1.5 uM incubated for 24 hrs by Western blotting analysis; assay type: cell-based; details: dose 0.1-1.5 µM
[24] = Half life in Sprague-Dawley rat at 2 mg/kg, iv by LC-MS/MS analysis; assay type: ADME, organism-based; details: in vivo
[25] = AUC in Sprague-Dawley rat at 2 mg/kg, iv by LC-MS/MS analysis; assay type: ADME, organism-based; details: in vivo
[26] = Apparent volume of distribution in Sprague-Dawley rat at 2 mg/kg, iv by LC-MS/MS analysis; assay type: ADME, organism-based; details: in vivo, read-out: Vz
[27] = Metabolic stability in human liver microsome assessed as half life at 10 uM by LC-MS/MS analysis; assay type: ADME; details: liver microsomes
CWR22R [28] = assay: Antitumor activity against human 22Rv1 cells xenografted in BALB/c mouse assessed as tumor growth inhibition at 10 mg/kg, iv administered for 20 days relative to control; assay type: functional; details: 22Rv1, 480 h, time 20 day, read-out: TGI
CWR22R [29] = assay: Antitumor activity against human 22Rv1 cells xenografted in BALB/c mouse assessed as tumor growth inhibition at 20 mg/kg, iv administered for 20 days relative to control; assay type: functional; details: 22Rv1, 480 h, time 20 day, read-out: TGI
[30] = Toxicity in BALB/c mouse xenografted with human 22Rv1 cells assessed as mortality at 10 to 20 mg/kg, iv administered for 20 days; assay type: organism-based, CWR22R; details: in vivo, 480 h, dose 10-20 mg/kg, time 20 day
[31] = Toxicity in BALB/c mouse xenografted with human 22Rv1 cells assessed as change in body weight at 10 mg/kg, iv administered for 20 days relative to control; assay type: organism-based, CWR22R; details: in vivo, 480 h, time 20 day
[32] = Toxicity in BALB/c mouse xenografted with human 22Rv1 cells assessed as change in body weight at 20 mg/kg, iv administered for 20 days relative to control; assay type: organism-based, CWR22R; details: in vivo, 480 h, time 20 day
CWR22R [33] = assay: In vivo degradation of CDK9 expression in human 22Rv1 cells xenografted in BALB/c mouse tumor at 20 mg/kg, iv administered for 18 days by Western blotting analysis; assay type: functional, organism-based; details: time 18.0 day
CWR22R [34] = assay: In vivo degradation of ARv7 expression in human 22Rv1 cells xenografted in BALB/c mouse tumor at 20 mg/kg, iv administered for 18 days by Western blotting analysis; assay type: functional, organism-based; details: time 18.0 day
CWR22R [35] = assay: In vivo degradation of Mcl-1 expression in human 22Rv1 cells xenografted in BALB/c mouse tumor at 20 mg/kg, iv administered for 18 days by Western blotting analysis; assay type: functional, organism-based; details: time 18.0 day
CWR22R [36] = assay: In vivo degradation of c-Myc expression in human 22Rv1 cells xenografted in BALB/c mouse tumor at 20 mg/kg, iv administered for 18 days by Western blotting analysis; assay type: functional, organism-based; details: time 18.0 day
CWR22R [37] = assay: In vivo degradation of CDK9 protein level in human 22Rv1 cells xenografted in BALB/c mouse tumor at 20 mg/kg, iv administered for 18 days by immunohistochemistry analysis; assay type: functional, organism-based; details: time 18.0 day
CWR22R [38] = assay: In vivo degradation of c-Myc protein level in human 22Rv1 cells xenografted in BALB/c mouse tumor at 20 mg/kg, iv administered for 18 days by immunohistochemistry analysis; assay type: functional, organism-based; details: time 18.0 day
CWR22R [39] = assay: In vivo degradation of Ki67 protein level in human 22Rv1 cells xenografted in BALB/c mouse tumor at 20 mg/kg, iv administered for 18 days by immunohistochemistry analysis; assay type: functional, organism-based; details: time 18.0 day
CWR22R [40] = assay: Antitumor activity against human 22Rv1 cells assessed as complete reduction in colony formation incubated for 2 weeks by crystal violet staining based assay; assay type: functional, cell-based; details: dose 7.8-62.5 nM
[41] = target: T2, Protein cereblon/Cyclin-dependent kinase 9; assay: PROTAC activity at CRBN/CDK9 in human 22Rv1 cells assessed as degradation of CDK9 protein at 20 nM incubated for 12 hrs by Western blotting analysis relative to control; assay type: cell-based

Compound: CN1CC[C@H](c2c(O)cc(O)c3c(=O)cc(-c4ccccc4Cl)oc23)[C@H](O)C1 [ALVOCIDIB]
IC50 (CWR22R [1]): 240 nM

Compound: COc1cc(O)c2c(=O)cc(-c3ccc(N4CCN(CC5CCN(c6ccc7c(c6)C(=O)N(C6CCC(=O)NC6=O)C7=O)CC5)CC4)cc3)oc2c1C1=CCN(C)CC1 (centres undefined)
inhibition [2]: 85.6%
IC50 [3]: 3.3 nM
IC50 (CWR22R [1]): 60 nM
Activity [4]: 80%
solubility thermodynamic [5]: 53 µg/mL (≈ 66.2 µM)
solubility thermodynamic [6]: 125 µg/mL (≈ 156 µM)
Activity [7]: Dose-Dependent Effect
DC50 [7]: 43 nM
Activity [8]: Tde
Activity [9]: 100%
Activity [10]: inactive
Activity [11]: inactive
Activity [12]: inactive
Activity [13]: inactive
Activity [14]: inactive
Activity [15]: inactive
Activity [16]: inactive
Activity [17]: inactive
Activity (CWR22R [18]): Dose-Dependent Effect
Activity (CWR22R [19]): 100%
Activity [20]: Dose-Dependent Effect
Activity [21]: Dose-Dependent Effect
Activity [22]: Dose-Dependent Effect
Activity [23]: Active
half-life [24]: 11.1 h
AUC [25]: 681 ng·h/mL
Vd [26]: 22.6 L/kg
half-life at 10 µM [27]: 1.62 h
inhibition in vivo at 10 mg/kg (CWR22R [28]): 65.7%
inhibition in vivo at 20 mg/kg (CWR22R [29]): 75.1%
Activity [30]: Non-Toxic
Activity [31]: 12.5%
Activity [32]: 15.3%
Activity (CWR22R [33]): Active
Activity (CWR22R [34]): Active
Activity (CWR22R [35]): Active
Activity (CWR22R [36]): Active
Activity (CWR22R [37]): Active
Activity (CWR22R [38]): Active
Activity (CWR22R [39]): Active
Activity (CWR22R [40]): Dose-Dependent Effect

Compound: COc1cc(O)c2c(=O)cc(-c3ccc(N4CCN(C(=O)C5CCN(c6ccc7c(c6)C(=O)N(C6CCC(=O)NC6=O)C7=O)CC5)CC4)cc3)oc2c1C1=CCN(C)CC1 (centres undefined)
inhibition [2]: 90.4%
IC50 (CWR22R [1]): 20 nM
Activity [41]: > 50%
solubility thermodynamic [5]: 21 µg/mL (≈ 25.8 µM)
solubility thermodynamic [6]: < 10 µg/mL

Further lines, with some results ahead:

inhibition [2]: 89.3%
solubility thermodynamic [5]: 41 µg/mL (≈ 51.2 µM)
solubility thermodynamic [6]: 193 µg/mL (≈ 241 µM)
Compound: COc1cc(O)c2c(=O)cc(-c3ccc(N4CCN(CC5CCN(c6cccc7c6C(=O)N(C6CCC(=O)NC6=O)C7=O)CC5)CC4)cc3)oc2c1C1=CCN(C)CC1 (centres undefined)
IC50 (CWR22R [1]): 70 nM

inhibition [2]: 69.9%
solubility thermodynamic [5]: < 10 µg/mL
solubility thermodynamic [6]: < 10 µg/mL
Compound: COc1cc(O)c2c(=O)cc(-c3ccc(N4CCN(C(=O)CCCCCOc5cccc6c5C(=O)N(C5CCC(=O)NC5=O)C6=O)CC4)cc3)oc2c1C1=CCN(C)CC1 (centres undefined)
IC50 (CWR22R [1]): 650 nM

inhibition [2]: 75%
solubility thermodynamic [5]: 45 µg/mL (≈ 55.2 µM)
solubility thermodynamic [6]: 117 µg/mL (≈ 144 µM)
Compound: COc1cc(O)c2c(=O)cc(-c3ccc(N4CCN(CCC5CCN(c6ccc7c(c6)C(=O)N(C6CCC(=O)NC6=O)C7=O)CC5)CC4)cc3)oc2c1C1=CCN(C)CC1 (centres undefined)
IC50 (CWR22R [1]): 350 nM

From ChEMBL document CHEMBL5625250, “Discovery of novel flavonoid-based CDK9 degraders for prostate cancer treatment via a PROTAC strategy” (Eur J Med Chem, 2023)
